Test results published in paper doi:10.1101/2024.08.13.607785v1 (biorxiv, 2024).
Read-outs that look alike come from different tables or passages of the source.

Columns and labels:
Assay in all cases: biochemical
[1] = target: Ephrin type-B receptor 4 ; EPHB4 ; P54760 (Homo sapiens, UniProt P54760); set-up: species or system human cell line lysate
[2] = target: Kinase suppressor of Ras 1 ; KSR1 ; Q8IVT5 (Homo sapiens, UniProt Q8IVT5); set-up: species or system human cell line lysate
[3] = target: T1, Ephrin type-B receptor 2 ; EPHB2 ; P29323 (Homo sapiens, UniProt P29323); set-up: species or system human cell line lysate
T1 sequence (P29323 1-1055): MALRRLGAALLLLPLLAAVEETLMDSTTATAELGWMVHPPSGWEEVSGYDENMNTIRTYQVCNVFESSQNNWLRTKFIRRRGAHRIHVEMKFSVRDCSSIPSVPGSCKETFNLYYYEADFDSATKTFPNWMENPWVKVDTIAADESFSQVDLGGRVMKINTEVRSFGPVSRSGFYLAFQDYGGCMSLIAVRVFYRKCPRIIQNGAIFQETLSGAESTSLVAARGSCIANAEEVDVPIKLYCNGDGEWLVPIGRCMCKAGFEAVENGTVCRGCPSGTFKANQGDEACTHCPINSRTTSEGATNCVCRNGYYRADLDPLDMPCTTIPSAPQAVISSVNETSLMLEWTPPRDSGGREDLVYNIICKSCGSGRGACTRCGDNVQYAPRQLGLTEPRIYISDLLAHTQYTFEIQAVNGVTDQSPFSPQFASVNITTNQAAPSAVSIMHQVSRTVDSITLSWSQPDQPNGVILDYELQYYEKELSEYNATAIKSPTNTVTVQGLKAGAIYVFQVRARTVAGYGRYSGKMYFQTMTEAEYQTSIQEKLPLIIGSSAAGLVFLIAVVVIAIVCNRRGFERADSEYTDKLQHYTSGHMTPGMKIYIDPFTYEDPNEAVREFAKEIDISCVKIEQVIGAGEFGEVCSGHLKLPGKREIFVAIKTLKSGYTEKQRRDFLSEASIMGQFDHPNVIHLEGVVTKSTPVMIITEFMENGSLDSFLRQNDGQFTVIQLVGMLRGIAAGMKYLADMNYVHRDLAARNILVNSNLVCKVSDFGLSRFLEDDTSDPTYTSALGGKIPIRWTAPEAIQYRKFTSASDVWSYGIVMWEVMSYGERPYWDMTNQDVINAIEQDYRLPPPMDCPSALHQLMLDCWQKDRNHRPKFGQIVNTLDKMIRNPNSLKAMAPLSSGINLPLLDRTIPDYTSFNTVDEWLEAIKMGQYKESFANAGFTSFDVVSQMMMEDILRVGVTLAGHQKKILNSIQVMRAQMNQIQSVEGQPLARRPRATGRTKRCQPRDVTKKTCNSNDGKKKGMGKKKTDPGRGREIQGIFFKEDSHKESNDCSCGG

[4] = target: Isoform 2 of Tyrosine-protein kinase Fyn ; FYN ; P06241-2 (Homo sapiens, UniProt P06241); set-up: species or system human cell line lysate
[5] = target: Isoform 2 of Serine/threonine-protein kinase TAO2 ; TAOK2 ; Q9UL54-2 (Homo sapiens, UniProt Q9UL54); set-up: species or system human cell line lysate
[6] = target: Serine/threonine-protein kinase MARK2 ; MARK2 ; Q7KZI7 (Homo sapiens, UniProt Q7KZI7); set-up: species or system human cell line lysate
[7] = target: Maternal embryonic leucine zipper kinase ; MELK ; Q14680 (Homo sapiens, UniProt Q14680); set-up: species or system human cell line lysate
[8] = target: Calcium/calmodulin-dependent protein kinase kinase 2 ; CAMKK2 ; Q96RR4 (Homo sapiens, UniProt Q96RR4); set-up: species or system mixed lysate of K562, MV4-11, THP-1, NCI-H1155
[9] = target: T2, Discoidin domain-containing receptor 2 ; DDR2 ; Q16832 (Homo sapiens, UniProt Q16832); set-up: species or system mixed lysate of K562, MV4-11, THP-1, NCI-H1155
T2 sequence (Q16832 1-855): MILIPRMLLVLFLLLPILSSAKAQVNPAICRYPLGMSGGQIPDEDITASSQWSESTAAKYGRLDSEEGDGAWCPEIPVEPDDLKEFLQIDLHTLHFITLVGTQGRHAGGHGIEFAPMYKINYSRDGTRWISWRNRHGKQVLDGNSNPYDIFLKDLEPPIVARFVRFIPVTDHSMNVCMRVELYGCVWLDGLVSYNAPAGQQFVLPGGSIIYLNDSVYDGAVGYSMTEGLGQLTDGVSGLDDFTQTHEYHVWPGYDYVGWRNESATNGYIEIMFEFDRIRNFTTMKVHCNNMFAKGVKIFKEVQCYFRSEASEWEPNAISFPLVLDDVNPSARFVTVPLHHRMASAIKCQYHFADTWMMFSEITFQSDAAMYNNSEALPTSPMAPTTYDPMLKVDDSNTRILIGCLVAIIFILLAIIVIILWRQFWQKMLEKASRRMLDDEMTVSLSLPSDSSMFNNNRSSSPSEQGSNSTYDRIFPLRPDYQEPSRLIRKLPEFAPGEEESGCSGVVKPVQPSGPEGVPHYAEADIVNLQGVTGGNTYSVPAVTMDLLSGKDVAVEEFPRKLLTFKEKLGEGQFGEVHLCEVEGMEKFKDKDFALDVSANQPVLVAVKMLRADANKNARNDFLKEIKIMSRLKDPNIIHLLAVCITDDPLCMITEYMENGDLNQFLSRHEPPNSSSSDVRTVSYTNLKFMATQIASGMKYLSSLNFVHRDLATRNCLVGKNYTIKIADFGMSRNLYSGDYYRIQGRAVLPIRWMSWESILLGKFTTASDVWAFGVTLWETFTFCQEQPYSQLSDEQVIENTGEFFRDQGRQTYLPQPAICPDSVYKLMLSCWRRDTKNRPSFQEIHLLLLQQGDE

[10] = read-out: BAY-1143572 (10 µM) / %Intensity relative to DMSO
[11] = read-out: BAY-1251152 (10 µM) / %Intensity relative to DMSO

Chain of Ephrin type-B receptor 4 ; EPHB4 ; P54760 (P54760 whole entry): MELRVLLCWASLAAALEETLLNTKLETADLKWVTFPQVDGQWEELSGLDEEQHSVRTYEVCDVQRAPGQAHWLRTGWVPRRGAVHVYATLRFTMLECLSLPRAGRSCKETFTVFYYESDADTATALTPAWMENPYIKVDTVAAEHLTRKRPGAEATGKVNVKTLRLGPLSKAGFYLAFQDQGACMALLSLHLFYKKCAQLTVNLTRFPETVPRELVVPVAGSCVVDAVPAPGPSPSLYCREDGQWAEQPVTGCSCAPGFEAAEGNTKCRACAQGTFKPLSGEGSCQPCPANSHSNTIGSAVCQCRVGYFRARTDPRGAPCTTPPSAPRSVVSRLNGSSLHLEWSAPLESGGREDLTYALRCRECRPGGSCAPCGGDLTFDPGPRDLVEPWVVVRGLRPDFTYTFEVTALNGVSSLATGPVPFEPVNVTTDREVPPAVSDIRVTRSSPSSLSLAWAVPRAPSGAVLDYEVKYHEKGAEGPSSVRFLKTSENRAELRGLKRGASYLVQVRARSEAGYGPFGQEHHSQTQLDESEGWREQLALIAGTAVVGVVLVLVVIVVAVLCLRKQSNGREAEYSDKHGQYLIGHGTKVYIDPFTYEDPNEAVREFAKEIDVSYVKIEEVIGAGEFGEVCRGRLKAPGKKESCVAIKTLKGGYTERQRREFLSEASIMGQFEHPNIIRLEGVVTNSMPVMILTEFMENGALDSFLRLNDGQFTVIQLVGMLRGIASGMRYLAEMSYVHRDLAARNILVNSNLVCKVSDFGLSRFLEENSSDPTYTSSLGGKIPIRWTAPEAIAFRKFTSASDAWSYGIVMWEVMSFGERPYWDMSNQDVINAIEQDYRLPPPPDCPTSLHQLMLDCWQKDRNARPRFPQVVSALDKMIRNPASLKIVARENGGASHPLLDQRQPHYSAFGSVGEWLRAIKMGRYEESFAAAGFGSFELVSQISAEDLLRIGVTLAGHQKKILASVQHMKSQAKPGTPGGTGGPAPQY
Chain of Serine/threonine-protein kinase MARK2 ; MARK2 ; Q7KZI7 (Q7KZI7 whole entry, one chain of several): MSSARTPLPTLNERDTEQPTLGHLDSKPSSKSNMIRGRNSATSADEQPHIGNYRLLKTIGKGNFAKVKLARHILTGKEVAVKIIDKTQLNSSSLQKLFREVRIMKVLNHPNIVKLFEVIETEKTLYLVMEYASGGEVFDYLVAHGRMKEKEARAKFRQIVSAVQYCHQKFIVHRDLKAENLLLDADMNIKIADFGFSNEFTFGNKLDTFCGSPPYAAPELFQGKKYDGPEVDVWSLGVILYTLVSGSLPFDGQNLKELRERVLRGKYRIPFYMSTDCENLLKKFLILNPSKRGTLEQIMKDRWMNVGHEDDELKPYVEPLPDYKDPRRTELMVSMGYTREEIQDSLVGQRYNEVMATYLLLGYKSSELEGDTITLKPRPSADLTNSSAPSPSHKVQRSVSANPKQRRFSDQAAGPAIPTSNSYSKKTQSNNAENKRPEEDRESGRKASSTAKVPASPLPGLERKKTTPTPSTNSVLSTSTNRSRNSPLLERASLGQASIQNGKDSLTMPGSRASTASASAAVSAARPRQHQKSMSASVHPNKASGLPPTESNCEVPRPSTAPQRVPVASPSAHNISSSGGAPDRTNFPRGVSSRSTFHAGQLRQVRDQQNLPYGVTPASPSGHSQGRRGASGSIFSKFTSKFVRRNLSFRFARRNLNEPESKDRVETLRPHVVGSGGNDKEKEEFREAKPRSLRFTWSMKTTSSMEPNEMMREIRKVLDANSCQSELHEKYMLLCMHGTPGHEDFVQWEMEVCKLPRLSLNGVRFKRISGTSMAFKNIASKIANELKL
Chain of Kinase suppressor of Ras 1 ; KSR1 ; Q8IVT5 (Q8IVT5 whole entry): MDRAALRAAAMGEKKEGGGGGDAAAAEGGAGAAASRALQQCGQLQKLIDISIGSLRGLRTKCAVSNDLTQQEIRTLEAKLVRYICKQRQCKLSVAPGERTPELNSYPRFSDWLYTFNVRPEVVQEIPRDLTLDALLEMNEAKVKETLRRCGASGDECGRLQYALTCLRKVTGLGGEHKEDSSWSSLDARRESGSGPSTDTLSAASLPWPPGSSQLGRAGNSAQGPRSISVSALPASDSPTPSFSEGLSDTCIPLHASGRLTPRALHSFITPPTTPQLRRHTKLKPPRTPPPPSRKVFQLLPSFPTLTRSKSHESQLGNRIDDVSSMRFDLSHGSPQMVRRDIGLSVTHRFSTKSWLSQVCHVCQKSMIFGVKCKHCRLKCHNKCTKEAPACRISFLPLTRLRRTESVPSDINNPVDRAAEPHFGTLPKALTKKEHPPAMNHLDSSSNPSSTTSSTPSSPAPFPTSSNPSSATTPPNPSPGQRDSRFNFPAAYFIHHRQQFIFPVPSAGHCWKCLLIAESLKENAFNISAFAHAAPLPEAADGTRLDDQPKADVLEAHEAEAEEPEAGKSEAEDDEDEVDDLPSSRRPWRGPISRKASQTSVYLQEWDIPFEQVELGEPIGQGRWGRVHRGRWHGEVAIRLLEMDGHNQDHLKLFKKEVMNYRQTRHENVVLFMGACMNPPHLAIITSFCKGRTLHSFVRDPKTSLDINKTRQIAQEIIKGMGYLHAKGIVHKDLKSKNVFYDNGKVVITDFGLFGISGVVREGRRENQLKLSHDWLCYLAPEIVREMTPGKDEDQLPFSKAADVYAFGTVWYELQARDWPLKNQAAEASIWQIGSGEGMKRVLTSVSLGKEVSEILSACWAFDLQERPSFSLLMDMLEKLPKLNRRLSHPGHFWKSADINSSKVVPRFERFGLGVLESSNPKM
Chain of Calcium/calmodulin-dependent protein kinase kinase 2 ; CAMKK2 ; Q96RR4 (Q96RR4 whole entry, the tested form may be a part, one chain of several): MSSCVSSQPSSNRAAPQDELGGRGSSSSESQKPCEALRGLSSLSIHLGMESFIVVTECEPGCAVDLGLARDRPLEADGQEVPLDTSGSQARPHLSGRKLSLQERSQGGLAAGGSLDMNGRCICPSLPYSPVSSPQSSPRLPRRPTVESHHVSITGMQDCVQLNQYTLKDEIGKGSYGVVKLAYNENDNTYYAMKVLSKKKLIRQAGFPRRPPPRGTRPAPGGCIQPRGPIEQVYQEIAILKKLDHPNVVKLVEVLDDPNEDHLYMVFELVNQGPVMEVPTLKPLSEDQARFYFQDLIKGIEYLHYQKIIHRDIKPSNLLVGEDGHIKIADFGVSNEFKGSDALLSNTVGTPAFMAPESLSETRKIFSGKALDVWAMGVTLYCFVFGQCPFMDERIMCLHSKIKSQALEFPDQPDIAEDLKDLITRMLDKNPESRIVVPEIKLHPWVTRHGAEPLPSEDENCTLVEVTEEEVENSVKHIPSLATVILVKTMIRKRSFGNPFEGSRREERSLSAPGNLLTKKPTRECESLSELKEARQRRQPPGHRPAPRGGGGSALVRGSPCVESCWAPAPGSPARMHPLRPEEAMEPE
Chain of Isoform 2 of Serine/threonine-protein kinase TAO2 ; TAOK2 ; Q9UL54-2 (Q9UL54 whole entry, canonical isoform, one chain of several): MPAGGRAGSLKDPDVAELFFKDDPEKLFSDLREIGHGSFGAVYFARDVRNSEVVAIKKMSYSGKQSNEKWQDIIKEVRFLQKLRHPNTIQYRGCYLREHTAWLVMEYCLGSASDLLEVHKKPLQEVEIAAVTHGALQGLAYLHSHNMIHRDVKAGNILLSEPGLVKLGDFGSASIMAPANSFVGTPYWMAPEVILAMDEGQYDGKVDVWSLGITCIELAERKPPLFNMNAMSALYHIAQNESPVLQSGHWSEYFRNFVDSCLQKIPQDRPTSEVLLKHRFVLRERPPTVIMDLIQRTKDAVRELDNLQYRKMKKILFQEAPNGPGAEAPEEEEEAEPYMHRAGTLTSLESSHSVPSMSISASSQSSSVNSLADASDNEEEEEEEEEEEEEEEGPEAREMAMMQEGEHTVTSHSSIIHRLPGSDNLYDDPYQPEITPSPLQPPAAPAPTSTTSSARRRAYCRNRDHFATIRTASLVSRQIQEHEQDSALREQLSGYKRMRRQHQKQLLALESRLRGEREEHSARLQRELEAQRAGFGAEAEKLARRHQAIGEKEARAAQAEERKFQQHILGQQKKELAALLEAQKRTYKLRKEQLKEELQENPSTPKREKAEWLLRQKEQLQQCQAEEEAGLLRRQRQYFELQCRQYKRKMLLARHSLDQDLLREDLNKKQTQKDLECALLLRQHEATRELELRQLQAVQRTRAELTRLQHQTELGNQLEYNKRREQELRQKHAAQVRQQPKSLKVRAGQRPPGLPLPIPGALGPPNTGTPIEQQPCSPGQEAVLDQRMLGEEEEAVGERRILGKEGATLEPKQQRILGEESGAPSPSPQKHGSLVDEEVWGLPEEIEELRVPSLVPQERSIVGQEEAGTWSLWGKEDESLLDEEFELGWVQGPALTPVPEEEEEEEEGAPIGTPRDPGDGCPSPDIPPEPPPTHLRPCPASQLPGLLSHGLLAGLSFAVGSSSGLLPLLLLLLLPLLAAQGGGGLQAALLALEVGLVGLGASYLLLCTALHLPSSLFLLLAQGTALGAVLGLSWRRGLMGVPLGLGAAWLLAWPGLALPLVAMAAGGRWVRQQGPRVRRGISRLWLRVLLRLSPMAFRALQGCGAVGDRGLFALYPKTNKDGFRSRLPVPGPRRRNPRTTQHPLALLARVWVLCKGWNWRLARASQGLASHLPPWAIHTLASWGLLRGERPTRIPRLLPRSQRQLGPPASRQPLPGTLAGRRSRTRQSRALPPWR
Chain of Isoform 2 of Tyrosine-protein kinase Fyn ; FYN ; P06241-2 (P06241 whole entry, canonical isoform): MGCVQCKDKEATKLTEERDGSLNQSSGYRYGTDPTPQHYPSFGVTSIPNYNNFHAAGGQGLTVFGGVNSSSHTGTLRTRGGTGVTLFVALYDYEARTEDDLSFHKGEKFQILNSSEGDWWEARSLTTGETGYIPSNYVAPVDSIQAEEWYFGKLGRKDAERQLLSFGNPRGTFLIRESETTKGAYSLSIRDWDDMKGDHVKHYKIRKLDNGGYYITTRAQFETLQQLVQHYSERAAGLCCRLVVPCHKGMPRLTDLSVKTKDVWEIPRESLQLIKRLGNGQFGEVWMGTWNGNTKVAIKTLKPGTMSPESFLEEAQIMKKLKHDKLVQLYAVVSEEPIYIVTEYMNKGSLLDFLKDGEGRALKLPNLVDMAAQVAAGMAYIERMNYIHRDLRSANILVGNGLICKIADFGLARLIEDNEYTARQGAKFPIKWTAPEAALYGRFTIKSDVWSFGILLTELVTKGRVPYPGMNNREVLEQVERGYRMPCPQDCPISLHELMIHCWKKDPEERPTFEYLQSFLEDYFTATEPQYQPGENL

Question: What does the source list for COc1cc(F)ccc1-c1ncnc(Nc2cccc(C[S@](C)(=N)=O)c2)n1 [BAY-1143572]?
Answer: remaining activity at 10 µM [1, 10]: 94.1%; remaining activity at 10 µM [2, 10]: 131%; remaining activity at 10 µM [3, 10]: 84.3%; remaining activity at 10 µM [4, 10]: 106%; remaining activity at 10 µM [5, 10]: 95.8%; remaining activity at 10 µM [6, 10]: 110%; remaining activity at 10 µM [7, 10]: 116%; remaining activity at 10 µM [8, 10]: 50.1%; remaining activity at 10 µM [9, 10]: 72.3%

Question: With COc1cc(F)ccc1-c1cc(Nc2cc(CS(C)(=N)=O)ccn2)ncc1F (stereo not drawn) [BAY-1251152] as the compound, how does the remaining activity at 10 µM [1, 11] read?
Answer: 100%

Question: What about the remaining activity at 10 µM [2, 11] of the same compound?
Answer: 146%

Question: And the remaining activity at 10 µM [3, 11]?
Answer: 105%

Question: And the remaining activity at 10 µM [4, 11]?
Answer: 108%

Question: And the remaining activity at 10 µM [5, 11]?
Answer: 76.6%

Question: And the remaining activity at 10 µM [6, 11]?
Answer: 103%

Question: And the remaining activity at 10 µM [7, 11]?
Answer: 110%

Question: What about the remaining activity at 10 µM [8, 11] of the same compound?
Answer: 29.2%

Question: And the remaining activity at 10 µM [9, 11]?
Answer: 38.5%
